# Data taken from ChEMBL document CHEMBL3872234, “Polyfluorinated salicylic acid derivatives as analogs of known drugs: Synthesis, molecular docking and biological evaluation” (Bioorg Med Chem, 2017).
# Values joined by “and” are separate entries in the source; they are usually repeats but may differ in a detail not shown here. Identical values can stand only once.
# Target: T1, Prostaglandin G/H synthase 1 (Ovis aries) (UniProt P05979)
# T1 sequence (whole entry): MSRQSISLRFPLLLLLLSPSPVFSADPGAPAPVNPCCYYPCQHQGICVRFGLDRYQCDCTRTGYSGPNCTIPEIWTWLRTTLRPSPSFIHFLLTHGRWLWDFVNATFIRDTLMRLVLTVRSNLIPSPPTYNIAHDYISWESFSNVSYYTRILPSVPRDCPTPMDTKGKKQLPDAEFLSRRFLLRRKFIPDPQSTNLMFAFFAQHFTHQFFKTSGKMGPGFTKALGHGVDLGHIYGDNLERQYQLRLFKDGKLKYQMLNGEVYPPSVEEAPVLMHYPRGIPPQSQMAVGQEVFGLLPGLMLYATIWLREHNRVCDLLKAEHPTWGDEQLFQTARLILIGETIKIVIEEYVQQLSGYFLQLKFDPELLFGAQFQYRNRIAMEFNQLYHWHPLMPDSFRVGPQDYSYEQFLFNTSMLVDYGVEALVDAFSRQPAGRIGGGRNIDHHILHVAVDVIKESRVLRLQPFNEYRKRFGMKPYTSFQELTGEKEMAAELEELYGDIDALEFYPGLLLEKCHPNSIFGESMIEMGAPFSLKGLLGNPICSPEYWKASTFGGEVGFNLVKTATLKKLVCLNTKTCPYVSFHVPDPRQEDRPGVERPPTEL
# Experiment: Inhibition of ovine COX-1 assessed as reduction in PGG2 production using ADHP as substrate at 200 uM incubated for 5 mins followed by substrate addition measured after 2 mins by fluorescence assay
# Conditions: not given
row,Compound,inhibition
1,O=C(O)c1c(O)c(F)c(F)c(F)c1F [listing 1 of 2 here],39% and 31%
2,CC(=O)Oc1ccccc1C(=O)O [ASPIRIN],36%
3,COC(=O)c1c(O)c(F)c(F)c(F)c1F,48%
4,CC(=O)Oc1c(C(=O)O)cc(F)c(F)c1F,18%
5,COc1c(F)c(F)c(F)c(F)c1C(=O)O,64%

# System: not listed separately
# Experiment: Acute toxicity in CD-1 mouse assessed as viability at 50 mg/kg, ip measured up to 14 days
# Assay type: organism-based
# Conditions: in vivo, read-out: Activity
row,Compound,survival at 336 h [%]
1,COc1c(C(=O)O)cc(F)c(F)c1F,100
2,CC(=O)Oc1c(F)c(F)c(F)c(F)c1C(=O)O,100
3,COC(=O)c1c(O)c(F)c(F)c(F)c1F,100
4,CC(=O)Oc1c(C(=O)O)cc(F)c(F)c1F,100

# System: not listed separately
# Experiment: Acute toxicity in CD-1 mouse assessed as viability at 300 mg/kg, ip measured up to 14 days
# Assay type: organism-based
# Conditions: in vivo
row,Compound,survival at 336 h [%]
1,CC(=O)Oc1ccccc1C(=O)O [ASPIRIN],33

# Same assay, conditions: in vivo, read-out: Activity
row,Compound,survival at 336 h [%]
1,COc1c(C(=O)O)cc(F)c(F)c1F,0
2,CC(=O)Oc1c(F)c(F)c(F)c(F)c1C(=O)O,0
3,CC(=O)Oc1c(C(=O)O)ccc(F)c1F,33
4,COC(=O)c1c(O)c(F)c(F)c(F)c1F,0
5,O=C(O)c1ccc(F)c(F)c1O,33
6,O=C(O)c1c(O)c(F)c(F)c(F)c1F [listing 2 of 2 here],0
7,CC(=O)Oc1c(C(=O)O)cc(F)c(F)c1F,0
8,COC(=O)c1cc(F)c(F)c(F)c1O,0
9,O=C(O)c1cc(F)c(F)cc1O,33
10,O=C(O)c1cc(F)c(F)c(F)c1O,0

# System: not listed separately
# Experiment: Acute toxicity in CD-1 mouse assessed as viability at 150 mg/kg, ip measured up to 14 days
# Assay type: organism-based
# Conditions: in vivo
row,Compound,survival at 336 h [%]
1,CC(=O)Oc1ccccc1C(=O)O [ASPIRIN],100

# Same assay, conditions: in vivo, read-out: Activity
row,Compound,survival at 336 h [%]
1,COc1c(C(=O)O)cc(F)c(F)c1F,80
2,CC(=O)Oc1c(F)c(F)c(F)c(F)c1C(=O)O,80
3,O=C(O)c1c(O)c(F)cc(F)c1F,66
4,CC(=O)Oc1cc(F)c(F)cc1C(=O)O,100
5,COC(=O)c1c(O)c(F)c(F)c(F)c1F,90
6,O=C(O)c1ccc(F)c(F)c1O,66
7,CC(=O)Oc1c(C(=O)O)cc(F)c(F)c1F,70
8,O=C([O-])c1cc(F)c(F)c(F)c1O.[Na+],66
9,COC(=O)c1cc(F)c(F)c(F)c1O,100
10,O=C(O)c1cc(F)c(F)cc1O,66

# System: not listed separately
# Experiment: Permeability of the compound at pH 6.2 after 2 hrs by PAMPA
# Assay type: ADME
# Conditions: read-out: Peff
row,Compound,Papp at 2 h [×10⁻⁶ cm/s]
1,O=C([O-])c1c(O)c(F)c(F)c(F)c1F.[Na+],1.8
2,O=C(O)c1c(O)c(F)c(F)c(F)c1F [listing 2 of 2 here],0.5

# System: not listed separately
# Experiment: Acute toxicity in CD-1 mouse assessed as viability at 75 mg/kg, ip measured up to 14 days
# Assay type: organism-based
# Conditions: in vivo, read-out: Activity
row,Compound,survival at 336 h [%]
1,O=C(O)c1c(O)c(F)c(F)c(F)c1F [listing 2 of 2 here],66

# System: Rattus norvegicus
# Experiment: Analgesic activity in rat assessed as latent period prolongation at 25 mg/kg, ip measured after 1 hr by hot plate test
# Assay type: functional
# Conditions: not given
row,Compound,Activity
1,COc1c(C(=O)O)cc(F)c(F)c1F,73.2%
2,CC(=O)Oc1c(F)c(F)c(F)c(F)c1C(=O)O,83.2%
3,O=C(O)c1c(O)c(F)cc(F)c1F,60.3%
4,CC(=O)Oc1c(C(=O)O)ccc(F)c1F,98.8%
5,CC(=O)Oc1ccccc1C(=O)O [ASPIRIN],57.9%
6,O=C(O)c1c(O)c(F)c(F)c(F)c1F [listing 2 of 2 here],143.2%
7,O=C(O)Cc1ccccc1Nc1c(Cl)cccc1Cl [DICLOFENAC],56 - 102.3%
8,CC(=O)Oc1c(C(=O)O)cc(F)c(F)c1F,71.2%
9,O=C([O-])c1cc(F)c(F)c(F)c1O.[Na+],66.8%
10,O=C(O)c1cc(F)c(F)cc1O,60.6%
11,COc1c(F)c(F)c(F)c(F)c1C(=O)O,100.8%
12,CC(=O)Oc1c(F)cc(F)c(F)c1C(=O)O,86.5%
13,O=C(O)c1cc(F)c(F)c(F)c1O,178.1%

# System: not listed separately
# Experiment: Permeability of the compound at pH 7.4 after 2 hrs by PAMPA
# Assay type: ADME
# Conditions: read-out: Peff
row,Compound,Papp at 2 h [×10⁻⁶ cm/s]
1,CC(=O)Oc1ccccc1C(=O)O [ASPIRIN],4.7
2,O=C([O-])c1c(O)c(F)c(F)c(F)c1F.[Na+],0.1
3,O=C(O)c1c(O)c(F)c(F)c(F)c1F [listing 2 of 2 here],0.1

# System: not listed separately
# Experiment: Permeability of the compound at pH 5 after 2 hrs by PAMPA
# Assay type: ADME
# Conditions: read-out: Peff
row,Compound,Papp at 2 h [×10⁻⁶ cm/s]
1,CC(=O)Oc1ccccc1C(=O)O [ASPIRIN],5.1
2,O=C([O-])c1c(O)c(F)c(F)c(F)c1F.[Na+],22.1
3,O=C(O)c1c(O)c(F)c(F)c(F)c1F [listing 2 of 2 here],18.6

# Target: T1, Prostaglandin G/H synthase 1 (Ovis aries)
# Experiment: Inhibition of ovine COX-1 assessed as reduction in PGG2 production using ADHP as substrate at 2 uM incubated for 5 mins followed by substrate addition measured after 2 mins by fluorescence assay
# Conditions: not given
row,Compound,inhibition
1,COc1c(C(=O)O)cc(F)c(F)c1F,< 10%
2,O=C(O)c1c(O)c(F)c(F)c(F)c1F [listing 1 of 2 here],34% and 59%
3,CC(=O)Oc1ccccc1C(=O)O [ASPIRIN],31%
4,COC(=O)c1c(O)c(F)c(F)c(F)c1F,47%
5,CC(=O)Oc1c(C(=O)O)cc(F)c(F)c1F,35%
6,COc1c(F)c(F)c(F)c(F)c1C(=O)O,48%

# System: Rattus norvegicus
# Experiment: Antiinflammatory activity in rat carrageenan-induced paw edema model assessed as inhibition of paw swelling at 50 mg/kg, ip administered 30 mins prior to carrageenan challenge measured after 5 hrs
# Assay type: functional
# Conditions: not given
row,Compound,inhibition in vivo at 50 mg/kg [%]
1,COc1c(C(=O)O)cc(F)c(F)c1F,30
2,CC(=O)Oc1c(F)c(F)c(F)c(F)c1C(=O)O,45.1
3,O=C(O)c1c(O)c(F)c(F)c(F)c1F [listing 2 of 2 here],56.5
4,O=C(O)c1cc(F)c(F)c(F)c1O,46.9

# System: not listed separately
# Experiment: Acute toxicity in CD-1 mouse assessed as viability at 100 mg/kg, ip measured up to 14 days
# Assay type: organism-based
# Conditions: in vivo
row,Compound,survival at 336 h [%]
1,CC(=O)Oc1ccccc1C(=O)O [ASPIRIN],100

# Same assay, conditions: in vivo, read-out: Activity
row,Compound,survival at 336 h [%]
1,O=C(O)c1ccc(F)c(F)c1O,66
2,COC(=O)c1cc(F)c(F)c(F)c1O,100
3,O=C(O)c1cc(F)c(F)cc1O,100

# System: Rattus norvegicus
# Experiment: Antiinflammatory activity in rat carrageenan-induced paw edema model assessed as inhibition of paw swelling at 25 mg/kg, ip administered 30 mins prior to carrageenan challenge measured after 3 hrs
# Assay type: functional
# Conditions: not given
row,Compound,inhibition in vivo at 25 mg/kg [%]
1,CC(=O)Oc1c(F)c(F)c(F)c(F)c1C(=O)O,42.9
2,O=C(O)c1c(O)c(F)cc(F)c1F,47
3,CC(=O)Oc1ccccc1C(=O)O [ASPIRIN],30.6 to 56.2
4,O=C(O)Cc1ccccc1Nc1c(Cl)cccc1Cl [DICLOFENAC],64.4
5,COc1c(F)c(F)c(F)c(F)c1C(=O)O,53.8
6,CC(=O)Oc1c(F)cc(F)c(F)c1C(=O)O,37.3

# System: not listed separately
# Experiment: Drug level in prisma HT buffer treated with 2-acetoxy-3,4,5-trifluorobenzoic acid at pH 5 to 7.4 by UV absorbance assay
# Assay type: toxicity
# Conditions: not given
row,Compound,Drug metabolism
1,O=C(O)c1cc(F)c(F)c(F)c1O,Metabolite_Notdetected

# System: Rattus norvegicus
# Experiment: Antiinflammatory activity in rat carrageenan-induced paw edema model assessed as inhibition of paw swelling at 50 mg/kg, ip administered 30 mins prior to carrageenan challenge measured after 3 hrs
# Assay type: functional
# Conditions: not given
row,Compound,inhibition in vivo at 50 mg/kg [%]
1,COc1c(C(=O)O)cc(F)c(F)c1F,40
2,CC(=O)Oc1c(F)c(F)c(F)c(F)c1C(=O)O,65.6
3,O=C(O)c1c(O)c(F)c(F)c(F)c1F [listing 2 of 2 here],64
4,COC(=O)c1cc(F)c(F)c(F)c1O,40.3
5,O=C(O)c1cc(F)c(F)c(F)c1O,46.7

# System: not listed separately
# Experiment: Drug level in prisma HT buffer treated with 2-acetoxy-3,4,5,6-tetrafluorobenzoic acid at pH 5 to 7.4 by UV absorbance assay
# Assay type: toxicity
# Conditions: not given
row,Compound,Drug metabolism
1,O=C(O)c1c(O)c(F)c(F)c(F)c1F [listing 2 of 2 here],Metabolite_Notdetected

# System: Rattus norvegicus
# Experiment: Antiinflammatory activity in rat carrageenan-induced paw edema model assessed as inhibition of paw swelling at 25 mg/kg, ip administered 30 mins prior to carrageenan challenge measured after 5 hrs
# Assay type: functional
# Conditions: not given
row,Compound,inhibition in vivo at 25 mg/kg [%]
1,CC(=O)Oc1c(F)c(F)c(F)c(F)c1C(=O)O,56.8
2,O=C(O)c1c(O)c(F)cc(F)c1F,41.7
3,CC(=O)Oc1c(C(=O)O)ccc(F)c1F,35.3
4,CC(=O)Oc1ccccc1C(=O)O [ASPIRIN],29.4 to 44.9
5,O=C(O)c1c(O)c(F)c(F)c(F)c1F [listing 2 of 2 here],33.1
6,O=C(O)Cc1ccccc1Nc1c(Cl)cccc1Cl [DICLOFENAC],54.4
7,COc1c(F)c(F)c(F)c(F)c1C(=O)O,46.9
8,CC(=O)Oc1c(F)cc(F)c(F)c1C(=O)O,32.7
